Measurements from US10391180B2, “Self-assembling complex for targeting chemical agents to cells” (CEDARS-SINAI MEDICAL CENTER, priority 2007, dated 2019).

Key:
MDA-MB-231 (HER2−) cells = assay: Targeted toxicity, MTT assay, separate dishes; format: cell-based; settings: HerDox/Dox 0.5 uM Dox; HerPBK10 0.1 uM; day 3
Experimental: (§1) FIG. 7 illustrates targeted toxicity. Each cell line was exposed to HerDox (0.5 uM Dox cone), Dox alone (0.5 uM), or HerPBK10 alone for 4 h at 37° C. in complete (i.e. serum-containing) media, followed by aspiration to remove free conjugate, and addition of fresh medium while cells are grown continuously. Cell titer was determined by metabolic (i.e. MTT) assay. FIG. 7 upper panel illustrates the effect of HerDox on MDA-MB-231 (HER2−) and MDA-MB-435 (HER2+) cell survival. Relative surviving cell numbers are represented as a % of corresponding untreated cells. FIG. 7 lower panel illustrates comparison of HerDox, Dox alone, or HerPBK10 alone on HER2− and HER2+ cell survival. Relative survival (as % of untreated cells) is shown for Day 3 of treatment.
(§2) The inventors compared the effect of HerDox or Dox alone at equivalent dosages (0.5 uM with respect to Dox concentration) on HER2+ and HER2− breast cancer cells in separate dishes. By three days, HerDox reduced HER2+ cell numbers by over 75% whereas HER2− cell survival was unaffected (FIG. 7). […] These findings emphasize the importance of targeting by showing that the untargeted drug affects nontarget (i.e. HER2−) cells. Importantly, the protein carrier, HerPBK10, alone at the equivalent concentration of protein in HerDox (0.1 uM) had no effect on either cell line (FIG. 7), including a lack of proliferation induction. To test receptor targeting, the inventors used free heregulin ligand (Her or eHRG) as a competitive inhibitor. […] As a final in vitro challenge, the inventors tested whether HerDox induces toxicity specifically to HER2+ cells in a mixed culture of HER2+ and HER2− breast cancer cells. To do this, the inventors produced a HER2− cell line tagged with green fluorescent protein (GFP) for cell identification in the mixed culture (FIG. 9 (A)). […] Altogether, these findings indicate that HerDox has the capacity to preferentially target toxicity to HER2+ cells. […] Moreover, the preferential cell killing of HER2+ cells in a mixed culture of HER2+ and HER2− cells implies that after death and lysis of the target cells, the Dox released into those cells is incapable of continuing to induce toxicity to HER2− cells. To further confirm the stability of HerDox in cell culture, HerDox was recovered from culture media in separate experiments at indicated time points and electrophoresed on an agarose gel, which was then illuminated by UV to detect Dox and stained with Coomassie blue to detect HerPBK10 protein (FIG. 9 (C)). […] Co-migration of HerPBK10 bands further verified that the conjugates remained intact in the cell media.

MDA-MB-435 (HER2+) cells = assay: Targeted toxicity, MTT assay, separate dishes; format: cell-based; settings: Dox 0.5 uM; HerPBK10 0.1 uM; day 3
Experimental: as §1, §2

HER2+ tumors = assay: HerDox vs Dox biodistribution by Dox fluorescence imaging; format: in vivo, mice
Experimental: FIGS. 11 (A)-(B) illustrates preferential targeting of HerDox to HER2+ tumors. Tumor-bearing mice were injected with 0.75 nmoles of HerDox or Dox via the tail vein and imaged with a custom small animal imager. FIG. 11 (A) depicts imaging of live mice after IV delivery of HerDox. Tumors are indicated by arrows. FIG. 11 (B) depicts imaging of tumors and tissues harvested at 3 h after injection of HerDox or Dox. Fluorescence signal from Dox is pseudo-colored according to the color bar, with a shift toward 100 indicating high fluorescence intensity. FIG. 11 (B) illustrates a comparison of the targeted delivery of Dox to HER2+ breast cancer cells with minimal delivery to other organs and tissues using a delivery system in accordance with an embodiment of the present invention (left panel), as compared with Dox administered alone (right panel).
Dox emits a red fluorescence upon appropriate wavelength excitation, which can be used to detect biodistribution after systemic delivery of HerDox. Mice bearing 4-week old) tumors (˜700-800 mm^3) received a single tail vein injection of Dox or HerDox ([…] with respect to Dox cone) and images of live mice captured in real time, or of organs/tissues harvested at ˜3 h postinjection were acquired using a customized macro-illumination and detection system. Fluorescence was evident throughout the body at 10 min after HerDox injection, then quickly accumulated at the tumors by 20 min and remained detectable in the tumors up to 100 min after injection (FIG. 11 (A)).

hearts of mice = assay: Cardiac tissue histology and echocardiography; format: in vivo
From the text: (§3) FIGS. 12 (A)-(D) illustrates comparison of HerDox and Dox on (A) tumor growth, (B) animal weight, (C) cardiac tissue, and (D) cardiac function.
At 25 days following injections, tumors and organs were harvested and processed for histochemistry. It is established that Dox can induce acute and long-term cardiotoxicity, therefore, the inventors examined the hearts of mice treated with HerDox or Dox.

MDA-MB-435 cells [1] = assay: Intracellular translocation in live cells, Dox fluorescence microscopy; format: cell-based
Experimental: FIGS. 14 (A)-(B) illustrates comparison of HerDox and Dox intracellular translocation and targets in live cells. MDA-MB-435 cells were incubated with HerDox or free Dox (0.5 uM) at 37° C. Live (unfixed) cells were imaged by brightfield and fluorescence as depicted in […], or DIC and confocal fluorescence, as depicted in FIG. 14 (B), microscopy. Dox is indicated by red or magenta pseudocolor.
To understand the mechanism of HerDox mediated tumor cell death, the inventors examined HER2+ cells microscopically after treatment with HerDox, using Dox fluorescence to detect intracellular location. […] These dynamics, in addition to earlier targeting results, support a receptor-mediated HerDox entry mechanism. Even the intranuclear pattern of Dox when delivered by HerPBK10 differs from free Dox.

[2] = system: bilateral flank tumors (HER2+); assay: In vivo tumor toxicity, tumor growth; parameters: species or system mice; settings: daily tail vein injections, 0.004 mg/kg Dox conc, 7 consecutive days
Experimental: as §3
To assess in vivo tumor toxicity, mice bearing 3-4 week bilateral flank tumors began receiving daily tail vein injections of Dox or HerDox (0.004 mg/kg with respect to Dox conc), HerPBK10 alone (at equivalent protein concentration to HerDox) or saline for 7 consecutive days.

[3] = in the presence of serum; cited from earlier work
MDA-MB-435 cells [4] = assay: HerPBK10 binding to cells in human serum, ELISA; format: cell-based; settings: 1.2 ug/well, cells exposed 2 hours to human sera
Experimental: FIG. 16 illustrates HerPBK10 binding to MDA-MB-435 cells in human serum from HER2+ or HER2− breast cancer patients. Cells were treated with HerPBK10 (1.2 ug/well) in media containing human serum from each of 5 HER2+ breast cancer patients or age matched HER2− controls, both obtained pre-chemotherapy treatment. Cells were processed for ELISA using an antibody directed at HerPBK10. Control (C) wells receiving HerPBK10 in media containing bovine serum without or with 100× molar excess competitive ligand inhibitor (+ Her) are indicated by open bars. Patient sera were provided by the WCRI tissue bank at Cedars-Sinai Medical Center. N=3 wells per treatment.
To determine whether HerPBK10 can compete with circulating ligand that may be present in serum, the inventors tested HerPBK10 binding to HER2+ breast cancer cells in human serum obtained from HER2+ patients. The Women's Cancer Research Institute at Cedars-Sinai occasionally acquires limited quantities of patient serum, of which sera from HER2+ patients comprises an even smaller minority. […] Here, the inventors replaced the bovine serum in the routine culturing media with the human serum obtained from the acquired patient samples to assess whether the human serum, especially from HER2+ patients, inhibits cell binding. […]

[5] = harvested at 3 h after injection

| Compound | effect on HER2− cell survival (MDA-MB-231 (HER2−) cells) | effect on HER2+ cell numbers (MDA-MB-435 (HER2+) cells) | Dox fluorescence in kidneys (HER2+ tumors; [5]) | Dox fluorescence in liver (HER2+ tumors; [5]) | Dox fluorescence in tumors (HER2+ tumors; [5]) | Dox fluorescence in lungs and skeletal muscle (HER2+ tumors; harvested ~3 h after injection, equivalent dose of Dox) | gross appearance of hearts (hearts of mice; 25 days following injections) | myocardium morphology (histochemistry) (hearts of mice; 25 days following injections) | echocardiogram: stroke volume, cardiac output, left ventricular internal dimension and volume (hearts of mice; treated mice) | intracellular location of Dox fluorescence (MDA-MB-435 cells [1]; 0.5 uM, 0 min of uptake) | intranuclear pattern of Dox (MDA-MB-435 cells [1]; live cells, confocal) | tumor growth [2] | receptor targeting under physiological conditions [3] | cell binding in serum from HER2+ patients, HER2− patients, or bovine serum (MDA-MB-435 cells [4]) |
| --- | --- | --- | --- | --- | --- | --- | --- | --- | --- | --- | --- | --- | --- | --- |
| COc1cccc2c1C(=O)c1c(O)c3c(c(O)c1C2=O)C[C@@](O)(C(=O)CO)C[C@@H]3O[C@H]1C[C@H](N)[C@H](O)[C@H](C)O1 [Dox, doxorubicin, reference compound] | reduced both HER2+ and HER2− cells by the same order of magnitude | reduced both HER2+ and HER2− cells by the same order of magnitude | detectable fluorescence | detectable fluorescence | detectable fluorescence | Lower levels of fluorescence | slightly enlarged and dilated | focal degeneration, myofibrillar loss, increased cytosoplasmic vacuolization, and nuclear condensation or dissolution | modest to marked reductions | inside the cell at the nuclear periphery | accumulates in the cell nucleus | slows tumor growth | – | – |
| HerPBK10: receptor binding domain of heregulin fused to adenovirus penton base protein modified by a C-terminal decalysine | no effect | no effect | – | – | – | – | – | – | – | – | – | no effect | retains receptor targeting | no significant differences |
